{
  "source": "paper PMC12679602",
  "about": "(RSC Advances, 2025)",
  "key": {"[1]": {"tested_on": "SARS-CoV-2 Delta variant (B.1.617.2)", "assay": "Virucidal assay against SARS-CoV-2", "assay_type": "cell-based", "conditions": "for virucidal activity against SARS-CoV-2: in words"}, "[2]": {"tested_on": "SARS-CoV-2 Delta variant (B.1.617.2)", "assay_type": "cell-based"}},
  "note": "Entries after “also recorded” stand apart in the source; their conditions may differ.",
  "data": [
    {"smiles": "C[C@H](CCC(=O)O)[C@H]1CC[C@H]2[C@@H]3CC[C@@H]4C[C@H](O)CC[C@]4(C)[C@H]3CC[C@]12C", "note": "[LCA (1), lithocholic acid]", "values": [
      {"measurement": "SI (selectivity index)", "setting": "[1]; SI = CC50/EC50, virucidal assay", "result": ">5.16"},
      {"measurement": "antiviral activity toward SARS-CoV-2", "setting": "[2]", "result": "did not exhibit antiviral activity"}
    ]},
    {"smiles": "C[C@H](CCC(=O)O)[C@H]1CC[C@H]2[C@@H]3[C@@H](O)C[C@@H]4C[C@H](O)CC[C@]4(C)[C@H]3CC[C@]12C", "note": "[UDCA (9), ursodeoxycholic acid]", "values": [
      {"measurement": "virucidal activity against SARS-CoV-2", "setting": "[1]", "result": "did not exhibit antiviral or virucidal activity"},
      {"measurement": "virucidal activity against SARS-CoV-2", "setting": "[1]; 9", "result": "did not show activity"},
      {"measurement": "antiviral activity toward SARS-CoV-2", "setting": "[2]", "result": "did not exhibit antiviral activity; also recorded: did not exhibit antiviral or virucidal activity"}
    ]},
    {"smiles": "C[C@H](CCC(=O)O)[C@H]1CC[C@H]2[C@@H]3[C@H](O)C[C@@H]4C[C@H](O)CC[C@]4(C)[C@H]3CC[C@]12C", "note": "[CDCA (13), chenodeoxycholic acid]", "values": [
      {"measurement": "virucidal activity against SARS-CoV-2", "setting": "[1]", "result": "did not exhibit antiviral or virucidal activity"},
      {"measurement": "virucidal activity against SARS-CoV-2", "setting": "[1]; 13", "result": "did not show activity"},
      {"measurement": "antiviral activity toward SARS-CoV-2", "setting": "[2]", "result": "did not exhibit antiviral activity; also recorded: did not exhibit antiviral or virucidal activity"}
    ]},
    {"smiles": "C[C@H](CCC(=O)O)[C@H]1CC[C@H]2[C@@H]3CC[C@@H]4C[C@H](O)CC[C@]4(C)[C@H]3C[C@H](O)[C@]12C", "note": "[DCA (5), deoxycholic acid]", "values": [
      {"measurement": "virucidal activity against SARS-CoV-2", "setting": "[1]", "result": "did not exhibit antiviral or virucidal activity"},
      {"measurement": "virucidal activity against SARS-CoV-2", "setting": "[1]; listed as DCA, 5", "result": "did not show activity"},
      {"measurement": "antiviral activity toward SARS-CoV-2", "setting": "[2]", "result": "did not exhibit antiviral activity; also recorded: did not exhibit antiviral or virucidal activity"}
    ]},
    {"smiles": "C[C@H](CCC(=O)[O-])[C@H]1CC[C@H]2[C@@H]3CC[C@@H]4C[C@H](O)CC[C@]4(C)[C@H]3CC[C@]12C.C[N+](C)(C)CCO", "note": "[[LCA][Z] (4)]", "values": [
      {"measurement": "virucidal activity, times lower than the free acid LCA (1)", "setting": "[1]; ratio of EC50 values", "result": 3.27, "unit": "times"}
    ]}
  ]
}
